We go through 16 compounds from PubChem BioAssay (NCI).

Among the test systems are UACC-62 melanoma; SN12C renal; COLO 205 colon; CCRF-CEM leukemia; HCT-116 colon; OVCAR-8 ovarian; MALME-3M melanoma; SNB-75 CNS; DU-145 prostate.
Experiment in all cases: NCI tumour cell line growth inhibition, 48 h

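Values below derive from 48-hour exposures of cells grown in 96-well plates, with endpoints linearly interpolated between the two concentrations bracketing the appropriate inhibition level. GI50 is the concentration that inhibits growth by half. TGI: concentration producing complete growth inhibition.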 A value given as a limit tells only on which side of the number the result lay.

As to `COc1ccc(C(=C(C#N)C#N)c2ccc(OC)cc2)cc1`, the TGI in the experiment on UACC-62 melanoma, with SN12C renal, in the experiment on COLO 205 colon, in the experiment with CCRF-CEM leukemia, in the experiment with HCT-116 colon and in the experiment on OVCAR-8 ovarian was greater than 100 µM in each case.

In the case of `CN1CCN2c3ccccc3CC(C#N)(C#N)C2C1` (stereo not given), the TGI in the experiment with UACC-62 melanoma, in the experiment with SN12C renal, in the experiment with COLO 205 colon, in the experiment on MALME-3M melanoma, in the experiment with SNB-75 CNS and in the experiment with CCRF-CEM leukemia was greater than 100 µM in each case. Also, the TGI with HCT-116 colon and in the experiment with OVCAR-8 ovarian was greater than 100 µM each time.

`CC(=O)O[C@H]1CC[C@@]2(C)C(=CC[C@@H]3C2CC[C@]2(C)C(=O)NC(=O)CC32)C1` (stereo not given in full): the TGI in the experiment on UACC-62 melanoma, in the experiment with SN12C renal, with COLO 205 colon, in the experiment with MALME-3M melanoma, in the experiment with SNB-75 CNS and with CCRF-CEM leukemia was greater than 100 µM throughout. The TGI with HCT-116 colon and in the experiment on OVCAR-8 ovarian was greater than 100 µM in each case.

Consider `O=C(/C=C/c1ccc[nH]1)c1ccccc1`, for which the TGI with UACC-62 melanoma, with SN12C renal, with COLO 205 colon, in the experiment with MALME-3M melanoma, with SNB-75 CNS and in the experiment with CCRF-CEM leukemia was greater than 100 µM throughout. The TGI with HCT-116 colon and with OVCAR-8 ovarian was greater than 100 µM each time.

As to `CN1C(=O)C(C)(C)NS1(=O)=O`, the TGI in the experiment on UACC-62 melanoma, with SN12C renal, with COLO 205 colon, with MALME-3M melanoma, in the experiment on SNB-75 CNS and with CCRF-CEM leukemia was greater than 100 µM in each case. Also, the TGI with HCT-116 colon and in the experiment with OVCAR-8 ovarian was greater than 100 µM each time.

For `CCOc1cccc2sc(N)nc12`, the TGI in the experiment with UACC-62 melanoma, in the experiment with SN12C renal, with COLO 205 colon, with MALME-3M melanoma, in the experiment on SNB-75 CNS and in the experiment on HCT-116 colon was greater than 100 µM in each case. In the experiment on OVCAR-8 ovarian, this compound displayed a TGI greater than 100 µM.

As for `C=C(c1ccccc1)[C@@]1(O)CCCC[C@H]1NC(c1ccccc1)c1ccccc1`, the TGI in the experiment on UACC-62 melanoma stood at 27.8 µM; in the experiment on SN12C renal, 29 µM; with COLO 205 colon it was 28 µM; in the experiment with MALME-3M melanoma, 30.7 µM; with SNB-75 CNS, 63.6 µM; in the experiment with CCRF-CEM leukemia it was 18.7 µM. In addition, the TGI with HCT-116 colon is 20.5 µM; with OVCAR-8 ovarian it was 28.1 µM.

`COc1cccc(-c2cc(C(=O)Nc3ccc(Cl)cc3)nc(N)n2)c1`: the TGI in the experiment with UACC-62 melanoma is greater than 100 µM; in the experiment with SN12C renal, greater than 100 µM; with COLO 205 colon, 71.4 µM; in the experiment with MALME-3M melanoma it was greater than 100 µM; in the experiment with SNB-75 CNS, 68.1 µM; in the experiment with CCRF-CEM leukemia it was greater than 100 µM. For the same compound, the TGI with HCT-116 colon and in the experiment with OVCAR-8 ovarian was greater than 100 µM in each case.

Turning to `O=C1C[C@@H]2[C@@H](C=CC23CC3)N1O`, the TGI in the experiment on UACC-62 melanoma, in the experiment with SN12C renal, with COLO 205 colon, in the experiment with MALME-3M melanoma, in the experiment with SNB-75 CNS and in the experiment with CCRF-CEM leukemia was greater than 100 µM throughout. The TGI with HCT-116 colon and in the experiment with OVCAR-8 ovarian was greater than 100 µM throughout.

Take `CCOC(=O)C1Nc2ccc([N+](=O)[O-])cc2[C@H]2OCC[C@@H]12` (stereo not given in full): the TGI with UACC-62 melanoma, with SN12C renal, with COLO 205 colon, in the experiment with MALME-3M melanoma, in the experiment with SNB-75 CNS and in the experiment with CCRF-CEM leukemia was greater than 100 µM throughout. For the same compound, the TGI with HCT-116 colon and in the experiment on OVCAR-8 ovarian was greater than 100 µM in each case.

Turning to `CCCCCCN(CCCCCC)C1=CC(=O)C(=O)c2ccccc21`, the TGI was 30.8 µM in the experiment on UACC-62 melanoma; 30.3 µM with SN12C renal; 31.4 µM in the experiment on COLO 205 colon; 35.8 µM with MALME-3M melanoma; 31.1 µM with SNB-75 CNS; greater than 100 µM with CCRF-CEM leukemia. In addition, the figures for the TGI with HCT-116 colon and in the experiment with OVCAR-8 ovarian were 32.9 µM and 29.7 µM, respectively.

On to `CN(C(=N)c1ccccc1)c1ccccc1`, for which the TGI with UACC-62 melanoma, with SN12C renal, in the experiment with COLO 205 colon, in the experiment on SNB-75 CNS, in the experiment on CCRF-CEM leukemia and in the experiment on HCT-116 colon was greater than 100 µM in each case. For the same compound, the TGI in the experiment on OVCAR-8 ovarian was greater than 100 µM.

For the compound `Nc1ncnc2c1ncn2C1OC(CO)CC1O` (stereo not given), the TGI in the experiment with UACC-62 melanoma is greater than 100 µM; in the experiment with SN12C renal, 80.2 µM; with COLO 205 colon, greater than 100 µM; in the experiment with SNB-75 CNS, greater than 100 µM; in the experiment on CCRF-CEM leukemia, greater than 100 µM; in the experiment on DU-145 prostate, greater than 100 µM. Besides, the TGI in the experiment with HCT-116 colon is greater than 100 µM; in the experiment with OVCAR-8 ovarian, 49.6 µM.

Turning to `CC12CCC(=O)N1c1cc([N+](=O)[O-])ccc1N2` (stereo not given), the TGI in the experiment with UACC-62 melanoma, in the experiment on SN12C renal, in the experiment on COLO 205 colon, in the experiment with MALME-3M melanoma, with SNB-75 CNS and with CCRF-CEM leukemia was greater than 100 µM each time. Also, the TGI with HCT-116 colon and in the experiment with OVCAR-8 ovarian was greater than 100 µM throughout.

Turning to `[O-]c1ccccc1[C-]=Nc1ccccc1O.[O-]c1ccccc1[C-]=Nc1ccccc1O.[O]=[U]=[O]`, the GI50 in the experiment with UACC-62 melanoma was 10.4 µM; in the experiment on SN12C renal, 10 µM; in the experiment with COLO 205 colon, 19 µM; with MALME-3M melanoma it was 12.8 µM; in the experiment with SNB-75 CNS it was 25.1 µM; in the experiment on CCRF-CEM leukemia, 2.6 µM. In the experiment on OVCAR-8 ovarian, the GI50 was 14.8 µM. Moreover, the TGI with UACC-62 melanoma worked out at 31.1 µM; with SN12C renal it was 35.4 µM; in the experiment with COLO 205 colon it was 51.6 µM; with MALME-3M melanoma it was 30.1 µM; in the experiment with SNB-75 CNS, 64.5 µM; with CCRF-CEM leukemia it was 44.4 µM. The same compound yielded a TGI in the experiment with OVCAR-8 ovarian of 66.7 µM.

As for `COC(=O)c1ccc(CS(=O)(=O)c2ccccc2)cc1`, the TGI in the experiment with UACC-62 melanoma, in the experiment with SN12C renal, in the experiment with COLO 205 colon, in the experiment with MALME-3M melanoma, with SNB-75 CNS and in the experiment with CCRF-CEM leukemia was greater than 100 µM throughout. The TGI in the experiment with HCT-116 colon and in the experiment on OVCAR-8 ovarian was greater than 100 µM each time.
